Data: US20250066320A1, “Active Ingredients with Sialagogue and Tingling/Fizzy Effect, and Preparations Containing Same” (Symrise AG, priority 2021, published 2025)

Experiment: Sensory tasting of the active ingredients (mouth-watering and/or tingling effect) by a trained expert panel
Format: in vivo, human
Conditions: for Sensory Rating: intensity of mouth-watering and/or tingling/fizzing effect (figure in brackets): 50 ppm
Experimental: The sensory tasting of the active ingredients according to the invention was carried out as follows: • (1) The active ingredients were each prepared in a 5% sugar solution or in an unflavored standard fondant mass. Fondant is the name for a soft, pasty sugar mass that is used to make various confectionery products. Fondant is made from water and sucrose as well as glucose syrup, invert sugar cream and/or sugar alcohols (e.g., sorbitol or mannitol). The mixture is boiled and then processed into a soft paste by kneading it vigorously and cooling it quickly. • (2) The concentration of the active ingredients was 25 or 50 ppm. • (3) The test samples were tested under practical conditions by a panel of experts with sensory training. For tasting, 3 to 7 tasters each rinsed their mouths with approx. 5 ml of the sugar solution and spat the solution out again. The mouth-watering and/or tingling effect was assessed on a scale of 1 (very weak) to 10 (very strong) and the profile evaluated.

[1] = 25 ppm in 5% sugar solution or unflavored fondant mass, 3 to 7 tasters
[2] = 50 ppm in 5% sugar solution or unflavored fondant mass, 3 to 7 tasters
[3] = scale of 1 (very weak) to 10 (very strong)

Structure (SMILES)	Sensory Rating (profile in words) [1]	Sensory Rating (profile in words) [2]	Sensory Rating: intensity of mouth-watering and/or tingling/fizzing effect (figure in brackets) [3]	further results
CCCOc1ccc(C(=O)N2CCN(C/C=C/c3ccccc3)CC2)cc1OCCC [Compound 1, [4-[(E)-cinnamyl]pi-perazin-1-yl]-(3,4-dipropoxy-phenyl)methanone]	astringent mouth-watering, Spilanthes effect	–	–	–
COc1ccc(C(=O)N2CCN(C/C=C/c3ccccc3)CC2)cc1OC [Compound 3, [4-[(E)-cinnamyl]piperazin-1-yl]-(3,4-dimethoxy-phenyl)methanone]	–	tingling/ fizzing	–	–
COc1cc(C(=O)N2CCN(C/C=C/c3ccccc3)CC2)ccc1O [Compound 4, [4-[(E)-cinnamyl]piperazin-1-yl]-(4-hydroxy-3-methoxy-phenyl)methanone]	–	balsamic	–	–
COc1cc(C(=O)N2CCN(C/C=C/c3ccccc3)CC2)cc(OC)c1OC [Compound 5, [4-[(E)-cinnamyl]piperazin-1-yl]-(3,4,5-trimethoxy-phenyl)methanone]	chocolaty, dusty, after cress	–	–	–
CCCOc1ccc(C(=O)N2CCN(C/C=C/c3ccccc3)CC2)cc1OCCC [Compound 6, [4-[(E)-cinnamyl]piperazin-1-yl]-(3,4-dipropoxy-phenyl)methanone]	bitter, light astringent	–	–	–
CCOc1ccc(C(=O)N2CCN(CCCc3ccccc3)CC2)cc1OCC [Compound 7, (3,4-Diethoxy-phenyl)-[4-(3-phenyl-propyl)piperazin-1-yl]methanone]	tingling/ fizzing, mouth-watering, slightly cooling	–	–	–
CCOc1ccc(C(=O)N2CCN(Cc3ccccc3)CC2)cc1OCC [Compound 8, (4-benzylpiperazin-1-yl)-(3,4-diethoxy-phenyl)methanone]	slightly tingling/ fizzing, slightly mouth-watering, slightly cooling	–	–	–
COc1ccc(C(=O)N2CCN(C/C=C/c3ccccc3)CC2)cc1O [Compound 9, [4-[(E)-cinnamyl]piperazin-1-yl]-(3-hydroxy-4-methoxy-phenyl)methanone]	sweet, after melon	–	–	–
CC(C)Oc1ccc(C(=O)N2CCN(C/C=C/c3ccccc3)CC2)cc1OC(C)C [Compound 10, [4-[(E)-cinnamyl]piperazin-1-yl]-(3,4-diisopropoxy-phenyl)methanone]	astringent, bitter	–	–	–
CCOc1ccc(C(=O)N2CCN(CCCCc3ccccc3)CC2)cc1OCC [Compound 11, (3,4-Diethoxy-phenyl)-[4-(4-phenyl-butyl)piperazin-1-yl]methanone]	tingling/ fizzing, like melon, astringent, mouth-watering	–	–	–
CCOc1ccc(C(=O)N2CCN(CCc3ccncc3)CC2)cc1OCC [Compound 12, (3,4-Diethoxy-phenyl)-[4-[2-(4-pyridyl)ethyl]piperazin-1-yl] methanone]	tingling/ fizzing, mouth-watering, ethanolic	–	–	–
CCOc1ccc(C(=O)N2CCN(CCOc3ccccc3)CC2)cc1OCC [Compound 13, (3,4-Diethoxy-phenyl)-[4-(2-phenoxyethyl)piperazin-1-yl] methanone]	strong tingling/ fizzing, mouth-watering,	–	–	–
CCOc1ccc(C(=O)N2CCN(Cc3ccncc3)CC2)cc1OCC [Compound 14, (3,4-Diethoxy-phenyl)-[4-(4-pyridyl-methyl)piperazin-1-yl]methanone]	slightly tingling/ fizzing, mouth-watering, burning,	–	–	–
CCOc1ccc(C(=O)N2CCN(CCc3ccccc3)CC2)cc1OCC [Compound 15, (3,4-Diethoxy-phenyl)-[4-(2-phenyl-ethyl)piperazin-1-yl]methanone]	Acid effect, tingling/ fizzing, mouth-watering, slightly salty	–	–	–
O=C(c1ccccc1)N1CCN(CCCCc2ccccc2)CC1 [Compound 16, Phenyl-[4-(4-phenylbutyl)piperazin-1-yl]methanone]	slightly tingling/ fizzing	metallic taste, mouth-watering and tingling/ fizzing effect	2-3	–
O=C(c1ccccc1)N1CCN(C/C=C/c2ccccc2)CC1 [Compound 17, [4-[(E)-cinnamyl]piperazin-1-yl]-phenyl-methanone]	–	slightly tingling/ fizzing, slightly honey-like	3	–
O=C(c1ccccc1)N1CCN(CCc2ccccc2)CC1 [Compound 18, Phenyl-[4-(2-phenyl-ethyl)piperazin-1-yl]methanone]	no effect	slightly tingling/ fizzing and mouth-watering	2-3	–
O=C(c1ccccc1)N1CCN(CCC2CCCCC2)CC1 [Compound 19, [4-(2-cyclo-hexylethyl)piperazin-1-yl]-phenyl-methanone]	fruity, slightly mouth-watering	of mushrooms, fruity, slightly metallic taste, slightly tingling/ fizzing	1-2	–
O=C(c1ccccc1)N1CCC(CCCc2ccccc2)CC1 [Compound 20, Phenyl-[4-(3-phenyl-propyl)-1-piperidyl]-methanone]	–	slightly tingling/ fizzing (2), mouth-watering, Anthranilate- like, fruity note	slightly tingling/ fizzing (2), mouth-watering, Anthranilate- like, fruity note	–
O=C(c1ccccc1)N1CCN(CCCc2ccccc2)CC1 [Compound 21, Phenyl-[4-(3-phenylpropyl)piperazin-1-yl] methanone]	sweet, fruity, slightly tingling/ fizzing	slightly tingling/ fizzing and mouth-watering	2-3	–
O=C(c1ccccc1)N1CCCN(CCc2ccccc2)CC1 [Compound 22, Phenyl-[4-(2-phenyl-ethyl)-1,4-diazepan-1-yl] methanone]	floral, linalool flavor	very light metallic taste, remarkably mouth-watering and tingling/ fizzing	4-5	–
O=C(c1ccccc1)N1CCN(Cc2ccccc2)CC1 [Compound 23, (4-benzylpiperazin-1-yl)-phenyl-methanone]	–	Slightly floral taste, slightly metallic, not a pleasant taste, very slightly mouth-watering and tingling/fizzing	3	–
CCOc1ccc(C(=O)N2CCN(CCC3CCCCC3)CC2)cc1OCC [Compound 24, [4-(2-cyclo-hexylethyl)piperazin-1-yl]-(3,4-diethoxy-phenyl)methanone]	–	fruity taste (blueberries)	–	–
CCOc1ccc(C(=O)N2CCC(CCCc3ccccc3)CC2)cc1OCC [Compound 25, (3,4-Diethoxy-phenyl)-[4-(3-phenyl-propyl)-1-piperidyl]-methanone]	–	Very slightly tingling/fizzing (2-3), sharp, astringent	Very slightly tingling/fizzing (2-3), sharp, astringent	–
CCOc1ccc(C(=O)N2CCCN(CCc3ccccc3)CC2)cc1OCC [Compound 26, (3,4-Diethoxy-phenyl)-[4-(2-phenyl-ethyl)-1,4-diazepan-1-yl]methanone]	–	Very slightly tingling/fizzing (1-2), and mouth-watering (weak)	Very slightly tingling/fizzing (1-2), and mouth-watering (weak)	–
COc1ccc(C(=O)N2CCN(CCCCc3ccccc3)CC2)cc1OC [Compound 27, (3,4-Dimethoxy-phenyl)-[4-(4-phenyl-butyl)piperazin-1-yl]methanone]	–	slightly tingling/ fizzing (4-5), and mouth-watering, metallic after- taste, weakly burning	slightly tingling/ fizzing (4-5), and mouth-watering, metallic after- taste, weakly burning	–
COc1ccc(C(=O)N2CCN(CCc3ccccc3)CC2)cc1OC [Compound 28, (3,4-Dimethoxy-phenyl)-[4-(2-phenyl-ethyl)piperazin-1-yl]methanone]	–	–	–	Sensory Rating (profile in words) (dosage 25 and 50 ppm, cell not split by dosage): slightly tingling/ fizzing (3) slightly metallic; Sensory Rating: intensity of tingling/fizzing effect (figure in brackets) (dosage 25 and 50 ppm, cell not split by dosage, scale of 1 (very weak) to 10 (very strong)): slightly tingling/ fizzing (3) slightly metallic
COc1ccc(C(=O)N2CCN(CCC3CCCCC3)CC2)cc1OC [Compound 29, [4-(2-cyclo-hexylethyl)piperazin-1-yl]-(3,4-dimethoxy-phenyl)methanone]	–	slightly mouth-watering, slightly tingling/ fizzing (1-2), green note, light onion flavor	slightly mouth-watering, slightly tingling/ fizzing (1-2), green note, light onion flavor	–
COc1ccc(C(=O)N2CCC(CCCc3ccccc3)CC2)cc1OC [Compound 30, (3,4-Dimethoxy-phenyl)-[4-(3-phenyl-propyl)-1-piperidyl]methanone]	–	very slight tingling/fizzing and mouth-watering, dry in the mouth	–	–
COc1ccc(C(=O)N2CCN(CCCc3ccccc3)CC2)cc1OC [Compound 31, (3,4-Dimethoxy-phenyl)-[4-(3-phenyl-propyl)piperazin-1-yl]methanone]	–	tingling/ fizzing (5-6), and mouth-watering, fruity note, Honey flavor	tingling/ fizzing (5-6), and mouth-watering, fruity note, Honey flavor	–
